Key:
[1] = target: Vascular endothelial growth factor receptor 2 (Homo sapiens, UniProt P35968); assay: Inhibition of recombinant KDR by HTRF assay
[2] = test system: HUVEC; assay: Inhibition of bFGF-stimulated HUVEC cell proliferation treated before 2 hrs of bFGF challenge assessed after 72 hrs; format: functional, cell-based; conditions: Homo sapiens
[3] = AUC (0 to infinity) in Sprague-Dawley rat at 1 mg/kg, iv or 10 mg/kg, po; format: ADME, organism-based; conditions: plasma
[4] = test system: Mus musculus; assay: Plasma concentration in mouse VEGF expressing HEK293 cells xenografted in athymic nude mouse at 10 mg/kg, po; format: ADME, organism-based; parameters: dose 10 mg/kg, route oral; conditions: in vivo
[5] = test system: Mus musculus; assay: Plasma concentration in mouse VEGF expressing HEK293 cells xenografted in athymic nude mouse at 30 mg/kg, po; format: ADME, organism-based; parameters: dose 30 mg/kg, route oral; conditions: in vivo
[6] = target: T1, Aurora kinase A (Homo sapiens, UniProt O14965); assay: Inhibition of aurora 2 kinase
T1 sequence (O14965 whole entry): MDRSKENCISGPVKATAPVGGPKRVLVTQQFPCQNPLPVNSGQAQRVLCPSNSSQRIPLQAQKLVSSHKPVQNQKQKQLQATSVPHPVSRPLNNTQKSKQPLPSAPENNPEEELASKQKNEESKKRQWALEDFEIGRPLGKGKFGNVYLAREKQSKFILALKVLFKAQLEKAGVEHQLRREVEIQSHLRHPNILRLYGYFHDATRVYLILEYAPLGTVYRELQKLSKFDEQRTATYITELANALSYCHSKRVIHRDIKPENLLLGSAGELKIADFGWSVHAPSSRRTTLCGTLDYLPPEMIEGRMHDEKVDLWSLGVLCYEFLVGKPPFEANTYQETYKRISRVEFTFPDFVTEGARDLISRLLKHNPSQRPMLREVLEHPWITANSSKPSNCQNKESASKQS

[7] = Volume of distribution at steady state in Sprague-Dawley rat at 1 mg/kg, iv or 10 mg/kg, po; format: ADME, organism-based; conditions: in vivo, read-out: Vdss
[8] = test system: HEK293; assay: Inhibition of vascular permeability in mouse VEGF expressing HEK293 cells xenografted in po dosed athymic nude mouse; format: functional, organism-based; conditions: Homo sapiens
[9] = Half life in Sprague-Dawley rat at 1 mg/kg, iv or 10 mg/kg, po; format: ADME, organism-based; conditions: in vivo
[10] = target: Angiopoietin-1 receptor (Homo sapiens, UniProt Q02763); assay: Inhibition of Tie 2
[11] = target: Phosphatidylinositol 4,5-bisphosphate 3-kinase catalytic subunit alpha isoform (Homo sapiens, UniProt P42336); assay: Inhibition of PI3K
[12] = Bioavailability in Sprague-Dawley rat at 1 mg/kg, iv or 10 mg/kg, po; format: ADME, organism-based; conditions: in vivo
[13] = Clearance in Sprague-Dawley rat at 1 mg/kg, iv or 10 mg/kg, po; format: ADME, organism-based; conditions: in vivo
[14] = target: Aurora kinase B (Homo sapiens, UniProt Q96GD4); assay: Inhibition of aurora 1 kinase
[15] = target: Mitogen-activated protein kinase 14 (Homo sapiens, UniProt Q16539); assay: Inhibition of p38alpha
[16] = test system: HUVEC; assay: Inhibition of VEGF-stimulated HUVEC cell proliferation treated before 2 hrs of VEGF challenge assessed after 72 hrs; format: functional, cell-based; conditions: Homo sapiens
[17] = target: Hepatocyte growth factor receptor (Homo sapiens, UniProt P08581); assay: Inhibition of cMET
Hepatocyte growth factor receptor, sequence (P08581 whole entry): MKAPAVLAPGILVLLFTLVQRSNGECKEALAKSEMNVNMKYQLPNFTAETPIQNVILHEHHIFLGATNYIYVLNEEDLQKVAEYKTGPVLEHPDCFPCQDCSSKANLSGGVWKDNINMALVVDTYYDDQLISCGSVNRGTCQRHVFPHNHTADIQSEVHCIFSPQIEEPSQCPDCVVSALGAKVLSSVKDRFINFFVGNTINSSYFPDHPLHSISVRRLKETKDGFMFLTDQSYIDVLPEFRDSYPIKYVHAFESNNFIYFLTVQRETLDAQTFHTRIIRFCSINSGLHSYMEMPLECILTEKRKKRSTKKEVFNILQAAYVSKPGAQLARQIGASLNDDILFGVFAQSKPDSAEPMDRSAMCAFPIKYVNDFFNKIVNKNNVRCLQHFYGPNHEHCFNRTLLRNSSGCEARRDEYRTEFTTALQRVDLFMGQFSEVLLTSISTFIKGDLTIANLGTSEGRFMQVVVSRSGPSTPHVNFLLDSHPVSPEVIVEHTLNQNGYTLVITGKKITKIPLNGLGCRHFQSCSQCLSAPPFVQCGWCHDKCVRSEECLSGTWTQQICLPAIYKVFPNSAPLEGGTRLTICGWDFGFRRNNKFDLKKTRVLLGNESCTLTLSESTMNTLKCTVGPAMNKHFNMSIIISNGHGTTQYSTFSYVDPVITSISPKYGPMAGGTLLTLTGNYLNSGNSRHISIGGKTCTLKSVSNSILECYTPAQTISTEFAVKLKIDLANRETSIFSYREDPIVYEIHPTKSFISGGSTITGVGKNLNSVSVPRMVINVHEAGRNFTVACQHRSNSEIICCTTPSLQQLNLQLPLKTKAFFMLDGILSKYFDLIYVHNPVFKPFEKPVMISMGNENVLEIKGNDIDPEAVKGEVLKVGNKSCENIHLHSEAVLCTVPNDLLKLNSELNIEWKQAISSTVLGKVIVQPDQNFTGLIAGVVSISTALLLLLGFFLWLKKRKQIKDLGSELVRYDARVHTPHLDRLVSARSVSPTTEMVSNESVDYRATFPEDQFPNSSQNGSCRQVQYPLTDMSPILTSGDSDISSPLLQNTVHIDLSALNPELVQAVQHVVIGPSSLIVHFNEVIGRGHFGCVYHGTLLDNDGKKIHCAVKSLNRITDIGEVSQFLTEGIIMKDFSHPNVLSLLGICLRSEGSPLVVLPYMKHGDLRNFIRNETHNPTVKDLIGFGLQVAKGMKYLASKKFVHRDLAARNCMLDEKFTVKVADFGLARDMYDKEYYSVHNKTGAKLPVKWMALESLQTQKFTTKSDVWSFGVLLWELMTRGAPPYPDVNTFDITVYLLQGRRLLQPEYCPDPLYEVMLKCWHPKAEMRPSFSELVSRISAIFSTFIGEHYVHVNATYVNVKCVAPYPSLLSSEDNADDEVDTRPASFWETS

Vascular endothelial growth factor receptor 2, sequence (P35968 whole entry): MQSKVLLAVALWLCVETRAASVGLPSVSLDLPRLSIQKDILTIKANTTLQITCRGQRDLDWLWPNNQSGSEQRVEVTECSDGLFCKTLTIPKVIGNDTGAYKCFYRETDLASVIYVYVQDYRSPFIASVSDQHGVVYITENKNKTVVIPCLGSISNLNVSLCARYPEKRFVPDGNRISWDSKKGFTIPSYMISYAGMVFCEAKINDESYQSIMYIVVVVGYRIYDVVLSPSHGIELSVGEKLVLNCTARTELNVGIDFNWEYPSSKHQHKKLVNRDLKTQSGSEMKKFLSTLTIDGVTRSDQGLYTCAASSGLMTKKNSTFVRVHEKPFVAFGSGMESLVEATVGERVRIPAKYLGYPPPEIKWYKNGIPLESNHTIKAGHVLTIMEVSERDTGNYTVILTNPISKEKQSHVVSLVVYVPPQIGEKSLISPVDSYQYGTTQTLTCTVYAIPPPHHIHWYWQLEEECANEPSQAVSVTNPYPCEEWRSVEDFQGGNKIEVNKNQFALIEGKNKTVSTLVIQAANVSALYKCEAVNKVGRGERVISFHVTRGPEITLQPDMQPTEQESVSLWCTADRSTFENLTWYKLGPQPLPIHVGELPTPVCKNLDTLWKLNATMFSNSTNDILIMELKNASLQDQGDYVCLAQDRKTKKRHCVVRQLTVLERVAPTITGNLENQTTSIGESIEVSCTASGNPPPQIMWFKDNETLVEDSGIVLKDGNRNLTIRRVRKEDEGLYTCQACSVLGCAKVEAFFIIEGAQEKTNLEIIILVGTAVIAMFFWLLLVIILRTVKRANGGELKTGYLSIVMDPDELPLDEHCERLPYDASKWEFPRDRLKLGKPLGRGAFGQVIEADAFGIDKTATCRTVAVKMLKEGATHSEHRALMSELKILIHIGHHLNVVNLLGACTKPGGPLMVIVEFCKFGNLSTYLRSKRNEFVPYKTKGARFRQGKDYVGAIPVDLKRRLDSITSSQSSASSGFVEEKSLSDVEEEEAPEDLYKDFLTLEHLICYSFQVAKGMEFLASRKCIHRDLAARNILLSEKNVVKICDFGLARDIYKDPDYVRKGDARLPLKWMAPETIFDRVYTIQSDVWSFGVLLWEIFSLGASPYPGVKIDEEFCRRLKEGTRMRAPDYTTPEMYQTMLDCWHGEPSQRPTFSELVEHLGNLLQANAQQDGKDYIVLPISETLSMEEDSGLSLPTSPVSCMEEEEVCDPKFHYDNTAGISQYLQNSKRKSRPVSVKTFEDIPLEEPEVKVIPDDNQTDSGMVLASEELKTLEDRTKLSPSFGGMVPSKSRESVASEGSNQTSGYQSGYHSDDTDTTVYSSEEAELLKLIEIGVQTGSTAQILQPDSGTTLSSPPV
Mitogen-activated protein kinase 14, sequence (Q16539 whole entry): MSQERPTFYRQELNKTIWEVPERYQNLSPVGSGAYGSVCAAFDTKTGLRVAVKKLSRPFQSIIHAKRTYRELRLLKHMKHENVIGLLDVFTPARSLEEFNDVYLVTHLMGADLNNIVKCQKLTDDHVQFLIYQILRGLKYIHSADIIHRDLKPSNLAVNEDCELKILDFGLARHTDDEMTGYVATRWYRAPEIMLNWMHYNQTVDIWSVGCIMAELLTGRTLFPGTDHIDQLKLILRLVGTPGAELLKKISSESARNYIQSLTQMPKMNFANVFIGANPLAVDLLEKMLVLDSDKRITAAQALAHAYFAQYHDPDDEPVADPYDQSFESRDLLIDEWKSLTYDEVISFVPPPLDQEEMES
Phosphatidylinositol 4,5-bisphosphate 3-kinase catalytic subunit alpha isoform, sequence (P42336 whole entry, canonical isoform): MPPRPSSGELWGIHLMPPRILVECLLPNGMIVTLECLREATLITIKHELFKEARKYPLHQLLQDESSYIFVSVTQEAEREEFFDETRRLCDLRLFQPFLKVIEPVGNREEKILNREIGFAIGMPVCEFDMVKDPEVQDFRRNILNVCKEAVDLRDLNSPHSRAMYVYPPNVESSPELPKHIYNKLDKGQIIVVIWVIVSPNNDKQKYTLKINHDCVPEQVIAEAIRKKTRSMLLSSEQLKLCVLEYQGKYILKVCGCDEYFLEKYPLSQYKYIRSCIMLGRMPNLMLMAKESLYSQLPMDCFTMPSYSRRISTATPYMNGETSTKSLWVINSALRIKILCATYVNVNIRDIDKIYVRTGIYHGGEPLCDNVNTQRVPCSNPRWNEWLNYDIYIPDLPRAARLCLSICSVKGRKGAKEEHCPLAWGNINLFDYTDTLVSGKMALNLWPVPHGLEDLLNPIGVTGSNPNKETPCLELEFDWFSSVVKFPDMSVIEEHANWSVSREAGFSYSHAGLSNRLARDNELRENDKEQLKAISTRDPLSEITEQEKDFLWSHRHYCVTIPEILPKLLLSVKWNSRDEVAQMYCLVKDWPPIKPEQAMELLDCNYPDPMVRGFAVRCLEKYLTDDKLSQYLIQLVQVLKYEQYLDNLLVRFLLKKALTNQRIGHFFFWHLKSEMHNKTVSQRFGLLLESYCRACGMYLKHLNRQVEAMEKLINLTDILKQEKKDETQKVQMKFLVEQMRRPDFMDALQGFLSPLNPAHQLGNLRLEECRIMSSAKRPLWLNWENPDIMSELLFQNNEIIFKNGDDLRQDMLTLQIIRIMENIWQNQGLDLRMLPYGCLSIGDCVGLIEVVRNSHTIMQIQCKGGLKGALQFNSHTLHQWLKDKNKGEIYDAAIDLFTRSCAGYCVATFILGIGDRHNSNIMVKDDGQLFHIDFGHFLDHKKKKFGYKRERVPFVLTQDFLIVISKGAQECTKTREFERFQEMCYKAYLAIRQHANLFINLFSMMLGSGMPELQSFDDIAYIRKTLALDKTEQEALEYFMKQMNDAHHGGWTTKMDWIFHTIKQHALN
Aurora kinase B, sequence (Q96GD4 whole entry): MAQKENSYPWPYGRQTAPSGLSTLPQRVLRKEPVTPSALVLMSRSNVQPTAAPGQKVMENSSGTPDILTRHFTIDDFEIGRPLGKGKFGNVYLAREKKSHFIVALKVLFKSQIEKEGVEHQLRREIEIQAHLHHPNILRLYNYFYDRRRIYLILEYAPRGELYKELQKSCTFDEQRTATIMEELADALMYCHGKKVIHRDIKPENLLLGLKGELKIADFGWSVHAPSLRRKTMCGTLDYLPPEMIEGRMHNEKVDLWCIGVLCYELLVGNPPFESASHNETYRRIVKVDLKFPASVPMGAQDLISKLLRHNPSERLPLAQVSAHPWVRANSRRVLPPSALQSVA

Row | Structure (SMILES) | IC50 [1] [nM] | IC50 [2] [nM] | IC50 [16] [nM] | further results
1 | CCCCNc1nn(C)c2cc(Oc3ccnc4cc(OC)c(OC)cc34)ccc12 | 800 | > 1000 |  | 
2 | COc1cc2nccc(Oc3ccc4c(NC(=O)c5cccc(C(F)(F)F)c5)nn(C)c4c3)c2cc1OC | 1 | > 1000 | 9 | AUC(0-inf) [3]: 1530 ng·h/mL; Cp [4]: 181 ng/mL; Cp [5]: 347 ng/mL; IC50 [6]: 764 nM; Vd [7]: 1.4 L/kg; Activity [8]: Dose-dependent effect; half-life [9]: 2.2 h; IC50 [10]: 121 nM; IC50 [11]: 3250 nM; bioavailability [12]: 46%; clearance [13]: 11.7 mL/min/kg; IC50 [14]: 45 nM; IC50 [15]: 1650 nM; IC50 [17]: 3320 nM
3 | COc1ccccc1Nc1cccc2cc(Oc3ccnc4cc(OC)c(OC)cc34)ccc12 | 1 |  |  | 
4 | COc1cc2nccc(Oc3ccc4c(NC(=O)c5ccc(F)c(Cl)c5)nn(C)c4c3)c2cc1OC | 3 | > 1000 | 9 | Vd [7]: 2.1 L/kg; half-life [9]: 1.5 h; clearance [13]: 21.7 mL/min/kg
5 | COc1cc2nccc(Oc3ccc4c(N)nn(C)c4c3)c2cc1OC | 1700 | > 1000 |  | 
6 | COc1cc2nccc(Oc3ccc4c(Nc5ccc(C(F)(F)F)cc5)nn(C)c4c3)c2cc1OC | 70 | > 1000 |  | 
7 | COc1cc2nccc(Oc3ccc4c(NC(=O)Nc5ccc(C)cc5)nn(C)c4c3)c2cc1OC | 2 | > 1000 | 3 | 
8 | COc1cc2nccc(Oc3ccc4c(NC(=O)c5cc(Cl)ccn5)nn(C)c4c3)c2cc1OC | 2 | > 1000 | 27 | 
9 | COc1ccc(Nc2nn(C)c3cc(Oc4ccnc5cc(OC)c(OC)cc45)ccc23)cc1 | 160 | > 1000 |  | 
10 | COc1cc2nccc(Oc3ccc4c(Nc5ccccc5)nn(C)c4c3)c2cc1OC | 270 | > 1000 |  | 
11 | COc1cc2nccc(Oc3ccc4c(Nc5ccccc5)cccc4c3)c2cc1OC | 2 |  |  | 
12 | COc1cccc(Nc2nn(C)c3cc(Oc4ccnc5cc(OC)c(OC)cc45)ccc23)c1 | 230 | > 1000 |  | 
13 | COc1cc2nccc(Oc3ccc4c(NCc5ccccc5)nn(C)c4c3)c2cc1OC | 60 | > 1000 |  | 
14 | COc1cc2nccc(Oc3ccc4c(NC(=O)c5ccc(Cl)cc5)nn(C)c4c3)c2cc1OC | 5 | > 1000 | 61 | 
15 | COc1cc2nccc(Oc3ccc4c(NC(=O)c5cc(C(F)(F)F)cc(C(F)(F)F)c5)nn(C)c4c3)c2cc1OC | 2 | > 1000 | 58 | 
16 | COc1cc2nccc(Oc3ccc4c(NC(=O)Nc5ccccc5)nn(C)c4c3)c2cc1OC | 2 | > 1000 | 6 | AUC(0-inf) [3]: 121 ng·h/mL; Vd [7]: 2 L/kg; half-life [9]: 4.3 h; bioavailability [12]: 2%; clearance [13]: 6.67 mL/min/kg
17 | COc1cc2nccc(Oc3ccc4c(NC(=O)c5ccc(C(F)(F)F)cc5)nn(C)c4c3)c2cc1OC | 3 | > 1000 | 79 | 
18 | CCNc1nn(C)c2cc(Oc3ccnc4cc(OC)c(OC)cc34)ccc12 | 370 | > 1000 |  | 
19 | COc1cc2nccc(Oc3ccc4c(NC(=O)Nc5ccc(C(F)(F)F)cc5Cl)nn(C)c4c3)c2cc1OC | 8 | > 1000 | 1150 | 
20 | COc1cc2nccc(Oc3ccc4c(NC(=O)c5ccccc5Cl)nn(C)c4c3)c2cc1OC | 8 | > 1000 |  | 
21 | CCCNc1nn(C)c2cc(Oc3ccnc4cc(OC)c(OC)cc34)ccc12 | 1110 | > 1000 |  | 
22 | COc1cc2nccc(Oc3ccc4c(NC(=O)c5cccc(C)c5)nn(C)c4c3)c2cc1OC | 2 | > 1000 | 2 | AUC(0-inf) [3]: 153 ng·h/mL; Vd [7]: 2.4 L/kg; half-life [9]: 2.7 h; bioavailability [12]: 12%; clearance [13]: 20 mL/min/kg
23 | COc1cc2nccc(Oc3ccc4c(NC(=O)C5CC5)nn(C)c4c3)c2cc1OC | 344 | > 1000 |  | 
24 | COc1ccc(C(=O)Nc2nn(C)c3cc(Oc4ccnc5cc(OC)c(OC)cc45)ccc23)cc1 | 3 | > 1000 | 32 | 
25 | COc1ccc(NC(=O)Nc2nn(C)c3cc(Oc4ccnc5cc(OC)c(OC)cc45)ccc23)cc1 | 1 | > 1000 | 7 | 

Reference: ChEMBL document CHEMBL1157345, “Evaluation of indazole-based compounds as a new class of potent KDR/VEGFR-2 inhibitors” (Bioorg Med Chem Lett, 2008)
